Measured values taken from patent publication US8399510B2, “Method of activating NK cells” (University of South Florida, priority 2007, dated 2013).
pIC50: −log10 of the molar value.

Columns and labels:
SHIP−/− LAK cells = assay: 4 hour 51Cr release cytolysis assay with SHIP−/− LAK cells; assay type: cell-based
Method: (§1) NK cells were magnetically enriched from whole splenocytes using the Miltenyi mouse NK cell enrichment kit and an Automac (Miltenyi) per the manufacturer's instructions. Magnetically enriched cells were plated at 2×10^6 cells/mL in the presence of 2000 units/mL human rIL-2 (Proleukin). Non-adherent cells were removed on day 2 and media replaced as necessary. On day 7 a standard 4 hour chromium release assay was performed. Briefly, target cells were loaded with 100 μCi of 51Cr per 1×10^6 cells for 60 minutes at 37° C. The target and lymphokine activate killer (LAK) 3 cells were then incubated together at 37° C. for 4 hours in the presence of inhibitors or media alone. Supernatants were collected and measured for radioactivity on a gamma counter (Perkin Elmer Wizard1470).
(§2) All experiments using sodium orthovanadate (NaOV) were performed with 100 μM activated NaOV. NaOV was activated by adjusting the pH of a 200 mM stock to pH 10.0 by the addition NaOH or HCl followed by boiling until the solution becomes colorless and then cooling to room temperature. This process is then repeated until the pH of the NaOV stabilizes at 10.0 (44). NaOV was added to the wells of the killing assay with the LAK cells 15 to 30 min prior to adding target cells at room temperature. NSC119910 was obtained from the Drug Synthesis and Chemistry Branch, Developmental Therapeutics Program, Division of Cancer Treatment and Diagnosis, NCI. The structure of NSC119910 was confirmed by proton NMR using a Varian Mercury-Plus, Oxford AS400 spectrometer. The 1H NMR spectrum was recorded at 400 MHz using DMSO-d6 as solvent and tetramethylsilane (TMS) as an internal standard. Chemical shift values are reported in parts per million (δ). […] 25 times this IC50 was established as the effective dose for NK cell based assays. NSC119910 was added immediately before the addition of target cells on ice. Both compounds were tested at their working concentration for the ability to kill and/or lyse the target cells without LAK cells being present.
Given the inappropriate degree of SHP1 recruitment to 2B4 in SHIP^−/− NK cells, the possibility of using chemical inhibitors to block its tyrosine phosphatase activity was explored to determine if this could restore killing of complex targets by SHIP-deficient NK cells. Standard four-hour 51Cr release assays were performed with SHIP^−/− (−/−) or WT (+/+) LAK cells, with a ratio of 30:1 and 3000 target cells for all conditions. NaOV (100 μM) was used first, a broadly acting tyrosine phosphatase inhibitor to counteract the effects of the SHP1 over-recruitment to 2B4, with a medium-only negative control. […] In fact, SHIP-deficient NK cytolysis of RMA parental targets exceeds that of WT LAK cells. This supernormal killing has been consistently observed against RMA targets in three separate studies with NaOV-treated SHIP^−/− LAK cells. This finding indicates phosphatase inhibition can restore the ability of SHIP^−/− NK cells to kill complex targets via NKG2D, while also expanding the capacity of SHIP-deficient NK cells to kill tumor cells in the absence of ligands for NKG2D.
Next, the ability of NSC119910 to restore killing in the SHIP^−/− NK cell was tested. The effective in vitro dose at which NSC119910 was able to restore SHIP^−/− cytotoxicity was determined in a dose titration experiment. Through this, 67.32 μM was identified as the effective dose (data not shown). This concentration of 67.32 μM of NSC119910 was used for all subsequent standard 4-hour 51Cr release assays, performed with SHIP^−/− (^−/−) or WT (^+/+) LAK cells and using a ratio of 30:1 and 3000 target cells in the presence of 67.32 μM NCI119910 or media alone (−). […] The experiments were repeated, using M157+ BaF3 transfectants were used as targets (FIG. 5D). SHIP^−/− (^−−) or WT (^++) cells were incubated with 67.32 μM NSC119910 (119910) or media alone (CNT) for 4 hours. The cells were then stained for NK1.1, TCR-β and NKG2D and analyzed for NKG2D expression. […]

WT LAK cells = assay: 4 hour 51Cr release cytolysis assay with WT LAK cells; assay type: cell-based, mouse
Method: as §1, §2
Given the inappropriate degree of SHP1 recruitment to 2B4 in SHIP^−/− NK cells, the possibility of using chemical inhibitors to block its tyrosine phosphatase activity was explored to determine if this could restore killing of complex targets by SHIP-deficient NK cells. Standard four-hour 51Cr release assays were performed with SHIP^−/− (−/−) or WT (+/+) LAK cells, with a ratio of 30:1 and 3000 target cells for all conditions. […]
Next, the ability of NSC119910 to restore killing in the SHIP^−/− NK cell was tested. The effective in vitro dose at which NSC119910 was able to restore SHIP^−/− cytotoxicity was determined in a dose titration experiment. […] The cells were then stained for NK1.1, TCR-β and NKG2D and analyzed for NKG2D expression. […]

SHP2 = target: T1, SHP2 (Homo sapiens, UniProt Q06124); assay: PTP inhibition assay (DiFMUP substrate), SHP2; assay type: biochemical; conditions: in vitro phosphatase activity, versus PTP1b
T1 sequence (Q06124 1-593): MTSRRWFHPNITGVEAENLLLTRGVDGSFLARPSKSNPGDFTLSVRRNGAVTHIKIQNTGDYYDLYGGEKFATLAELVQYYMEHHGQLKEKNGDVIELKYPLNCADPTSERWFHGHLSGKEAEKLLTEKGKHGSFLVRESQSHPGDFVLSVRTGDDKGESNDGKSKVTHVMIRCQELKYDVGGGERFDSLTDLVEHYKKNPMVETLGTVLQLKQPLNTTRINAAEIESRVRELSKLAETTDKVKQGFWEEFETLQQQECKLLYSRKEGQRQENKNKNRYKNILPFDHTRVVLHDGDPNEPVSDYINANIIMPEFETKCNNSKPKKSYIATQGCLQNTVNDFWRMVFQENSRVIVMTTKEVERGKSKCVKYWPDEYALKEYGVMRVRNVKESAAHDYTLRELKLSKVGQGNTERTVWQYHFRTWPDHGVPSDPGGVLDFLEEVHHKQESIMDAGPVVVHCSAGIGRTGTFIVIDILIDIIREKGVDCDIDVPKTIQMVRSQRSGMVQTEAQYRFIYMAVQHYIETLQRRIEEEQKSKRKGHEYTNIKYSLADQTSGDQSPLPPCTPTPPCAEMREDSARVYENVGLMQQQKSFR
Method: (§3) PTP activity was measured using the fluorogenic 6,8-difluoro-4-methylumbelliferyl phosphate (DiFMUP; Invitrogen, Carlsbad, Calif.) as the substrate. Each reaction contained 25 mM HEPES, 50 mM NaCl, 0.05% Triton, 1 mM dithiothreitol, 20 μM DiFMUP, 10 nM Microcystin LR, 20 nM GST-PTP, and 10 μl of test compound or dimethyl sulfoxide (solvent) in a total reaction volume of 100 μl in black 96-well plates. Reaction was initiated by addition of DiFMUP, and the incubation time was 30 min at room temperature. DiFMUP fluorescence signal was measured at an excitation of 355 nm and an emission of 460 nm with a plate reader (Victor2 1420; PerkinElmer Wallac, Gaithersburg, Md.). IC50 was defined as the concentration of an inhibitor that caused a 50% decrease in the PTP activity. For IC50 determination, eight concentrations of NSC119910 at one-third dilution (˜0.5 log) were tested. The ranges of NSC119910 concentrations used in each PTP assay were determined from preliminary trials. Each experiment was performed either in triplicate or duplicate, and IC50 data were derived from at least two independent experiments. The curve-fitting program Prism 4 (GraphPad Software, San Diego, Calif.) was used to calculate IC50 values.

SHP1 = SHP1 (Homo sapiens, UniProt P29350); assay: PTP inhibition assay (DiFMUP substrate), SHP1; assay type: biochemical
Chain of SHP1 (P29350 whole entry): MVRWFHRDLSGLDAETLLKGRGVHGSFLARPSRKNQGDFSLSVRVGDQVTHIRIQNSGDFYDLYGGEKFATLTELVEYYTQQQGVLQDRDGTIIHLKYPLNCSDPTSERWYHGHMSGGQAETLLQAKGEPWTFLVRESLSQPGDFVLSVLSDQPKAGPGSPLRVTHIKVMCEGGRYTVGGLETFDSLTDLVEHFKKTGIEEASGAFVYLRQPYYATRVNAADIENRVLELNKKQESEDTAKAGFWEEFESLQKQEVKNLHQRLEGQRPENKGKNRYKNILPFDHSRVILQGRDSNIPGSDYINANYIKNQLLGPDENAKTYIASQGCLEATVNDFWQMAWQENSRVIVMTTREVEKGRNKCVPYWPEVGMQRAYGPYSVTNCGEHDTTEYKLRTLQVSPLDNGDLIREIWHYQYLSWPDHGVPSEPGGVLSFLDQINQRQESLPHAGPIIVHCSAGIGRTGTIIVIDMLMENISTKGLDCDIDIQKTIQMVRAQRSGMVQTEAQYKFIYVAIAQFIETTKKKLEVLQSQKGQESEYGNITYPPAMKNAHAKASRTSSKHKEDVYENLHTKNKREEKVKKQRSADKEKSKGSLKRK
Method: as §3

NKG2D = NKG2D expression on LAK cells (staining for NK1.1, TCR-β, NKG2D); assay type: cell-based, mouse; conditions: 67.32 μM NSC119910, 4 hours; SHIP−/− or WT cells
Method: Next, the ability of NSC119910 to restore killing in the SHIP^−/− NK cell was tested. The effective in vitro dose at which NSC119910 was able to restore SHIP^−/− cytotoxicity was determined in a dose titration experiment. Through this, 67.32 μM was identified as the effective dose (data not shown). This concentration of 67.32 μM of NSC119910 was used for all subsequent standard 4-hour 51Cr release assays, performed with SHIP^−/− (^−/−) or WT (^+/+) LAK cells and using a ratio of 30:1 and 3000 target cells in the presence of 67.32 μM NCI119910 or media alone (−). […] The experiments were repeated, using M157+ BaF3 transfectants were used as targets (FIG. 5D). SHIP^−/− (^−−) or WT (^++) cells were incubated with 67.32 μM NSC119910 (119910) or media alone (CNT) for 4 hours. The cells were then stained for NK1.1, TCR-β and NKG2D and analyzed for NKG2D expression. The addition of NSC119910 to LAK cells had no effect on the expression levels of NKG2D (FIG. 5E). The experiments were also performed with m157^+ BaF3 targets. […] Although the increase is not as dramatic as observed with NKG2D mediated cytolysis, this increase has been observed consistently in multiple cytolysis assays with the m157^+ BaF3 targets. […]

[1] = 67.32 μM NSC119910, ratio 30:1, 3000 target cells
[2] = 100 μM NaOV, ratio 30:1, 3000 target cells

Structure (SMILES) | killing of m157+ BaF3 targets by SHIP−/− NK cells (SHIP−/− LAK cells; 67.32 μM NSC119910) | killing of Rae1+ RMA targets by SHIP−/− NK cells (SHIP−/− LAK cells; [1]) | killing of parental RMA targets by SHIP−/− NK cells (SHIP−/− LAK cells; [1]) | effective in vitro dose restoring SHIP−/− cytotoxicity (SHIP−/− LAK cells; dose titration experiment (data not shown)) | cytolytic activity of WT NK cells against Rae1+ targets (WT LAK cells; [1]) | killing of m157+ cells by WT LAK cells (WT LAK cells; NSC119910, compared with the increase seen with NaOV) | killing of RMA cells by WT NK cells (WT LAK cells; in the presence of NSC119910) | selectivity to SHP2 over PTP1b (SHP2) | selectivity to SHP1 over PTP1b (SHP1; in vitro phosphatase activity, versus PTP1b) | pIC50 (SHP1; purified SHP1, read-out: cell free, in vitro IC50 using purified SHP1) | expression levels of NKG2D on LAK cells (NKG2D) | killing of m157+ BaF3 targets by SHIP−/− NK cells (SHIP−/− LAK cells; 100 μM NaOV) | killing of parental BaF3 targets by SHIP−/− NK cells (SHIP−/− LAK cells; 100 μM NaOV) | killing of RMA parental targets by SHIP−/− LAK cells (SHIP−/− LAK cells; [2]) | killing of Rae1+ RMA targets by SHIP−/− LAK cells (SHIP−/− LAK cells; [2]) | killing of RMA or RMA-Rae1+ targets by WT LAK cells (WT LAK cells; [2])
O=C(O)C1CCCCC1c1c2ccc(=O)c(O)c-2oc2c(O)c(O)ccc12 (stereo not shown) [NSC119910] | increased | significantly restored killing | significantly restored killing | 67.32 µM | no effect | the same increase of killing of m157^+ cells by WT LAK cells was not seen | increase | approximately 100 fold | approximately 10 fold | 5.57 | no effect |  |  |  |  | 
[Na+].[Na+].[Na+].[O]=[V]([O-])([O-])[O-] [NaOV, Sodium orthovanadate, reference compound] |  |  |  |  |  |  |  |  |  |  |  | able to increase the capacity | able to increase the capacity | increased the capacity | restore cellular ability to mediate efficient killing | increased killing by WT LAK cells was not seen
